Results reported in patent US5258406A, “Sulfonimidamides” (priority 1992, dated 1993).
Where two headings read alike, the source gives them in different places.

System: 6C3HED lymphosarcoma
Assay: animal or person
Assay type: in vivo
Details: for inhibition in vivo at 18.75 mg/kg: read-out: % inhibition of tumor growth, oral, 18.75 mg/kg, BIDX 8; for inhibition in vivo at 37.5 mg/kg: read-out: % inhibition of tumor growth, oral, 37.5 mg/kg, BIDX 8; for inhibition in vivo at 75 mg/kg: read-out: % inhibition of tumor growth, oral, 75 mg/kg, BIDX 8
Experimental: The compounds were tested in C3H mice bearing a 6C3HED lymphosarcoma, also known as the Gardner lymphosarcoma (GLS), and in a variety of human tumor xenografts in CD1 nu/nu mice, including CX-1, LX-1, HXGC3, and VRC5. The 6C3HED lymphosarcoma was obtained from the Division of Cancer Treatment, National […] Institute, Tumor Bank, maintained at E. G. and G. Mason Research (Worcester, Mass.). The CX-1 human colon carcinoma and the LX-1 human lung carcinoma xenografts were obtained from the National Cancer Institute. The HXGC3 and VRC5 human colon xenografts were obtained from Dr. P. J. Houghton, St. Jude Children's Hospital in Memphis (see Br. J. Cancer, 37, 213 (1978)). First passage tumor was stored in liquid nitrogen using standard techniques. The transplanted tumor was reestablished from the Tumor Bank every six months or as needed. The tumor was maintained by serial passage twice weekly in C3H mice.
In the procedure the tumor was removed from passage animals and minced into 1- to 3-mm square fragments using sterile techniques. Tumor pieces were checked for sterility using both Antibiotic Medium 1 and Brain Heart Infusion (Difco, Detroit, Mich.). Recipient mice were shaved and tumor pieces were implanted subcutaneously in the auxiliary region by trocar. Drug therapy on the appropriate schedule was initiated on the day after tumor implant for 6C3HED and after a seven (7) day delay for xenografts (or other delay as noted in Table 2). The compound being tested was mixed with 2.5% Emulphor EL620 from GAF Corporation (1:40 dilution in saline). Food and water were provided ad libitium. The drug was administered orally in 0.5 ml of 2.5% Emulphor (unless otherwise indicated). The tumor was measured the day after treatment ended with two dimensional measurements (width and length) of the tumor taken using automated digital calipers interfaced to a microcomputer. Approximate weight for the tumor was calculated using the following formula [Worzalla, J. F., et al., Invest. New Drugs, 8, 241 (1990], (tumor weight in mg)=(width in mm)^2 ×(length in mm)/2.
At least one control group of an equal number of mice was treated with the same volume of 2.5% Emulphor only. The percent inhibition was determined by subtracting the ratio of the mean tumor size of the test group relative to the control group from one and multiplying the result times 100.
The results of several experiments in mice bearing a 6C3HED lymphosarcoma (or other tumor where indicated) when the indicated compounds were administered are provided in Table 2. In Table 2, column 1 gives the Example number of the compound used, column 2 lists the dose level in mg/kg, column 3 provides the percent inhibition of tumor growth, column 4 gives the number of mice which died relative to the total number of animals in the group, column 5 gives the method of administration of the compound, and column 6 gives the dosage schedule. The protocol used with other tumors was the same as with the 6C3HED lymphosarcoma.

[1] = Mus musculus, 6C3HED, ip, read-out: % inhibition of tumor growth, IP, 150 mg/kg, DX 8
[2] = Mus musculus, 6C3HED, ip, read-out: % inhibition of tumor growth, IP, 300 mg/kg, DX 8
[3] = Mus musculus, 6C3HED, po, read-out: % inhibition of tumor growth, oral, 150 mg/kg, BIDX 8
[4] = Mus musculus, 6C3HED, po, read-out: % inhibition of tumor growth, oral, 300 mg/kg, BIDX 8
[5] = Mus musculus, 6C3HED, po, read-out: % inhibition of tumor growth, oral, 150 mg/kg, DX 8
[6] = Mus musculus, 6C3HED, po, read-out: % inhibition of tumor growth, oral, 300 mg/kg, DX 8

Structure (SMILES) | Tox/Tot (mice which died / total) (IP, 300 mg/kg, DX 8) | inhibition in vivo at 150 mg/kg [3] [%] | inhibition in vivo at 300 mg/kg [4] [%] | Tox/Tot (mice which died / total) (oral, 150 mg/kg, BIDX 8) | Tox/Tot (mice which died / total) (oral, 300 mg/kg, BIDX 8) | inhibition in vivo at 150 mg/kg [5] [%] | inhibition in vivo at 300 mg/kg [6] [%] | Tox/Tot (mice which died / total) (oral, 150 mg/kg, DX 8) | Tox/Tot (mice which died / total) (oral, 300 mg/kg, DX 8) | other results
CCN=S(=O)(NC(=O)Nc1ccc(Cl)cc1)c1ccc(C)cc1 (stereo not drawn) [Example 4, N-[[(4-chlorophenyl)amino]carbonyl]-N'-ethyl-4-methylbenzenesulfonimidamide] | 0/10 | 87 | 96 | 0/10 | 0/10 |  |  |  |  | Tox/Tot (mice which died / total) (IP, 150 mg/kg, DX 8): 0/10; inhibition in vivo at 150 mg/kg [1]: 10%; inhibition in vivo at 300 mg/kg [2]: 18%
CCCNS(=O)(=NC(=O)Nc1ccc(Cl)cc1)c1ccc(C)cc1 (stereo not drawn) [Example 5] | 0/10 |  |  |  |  | 64 | 69 | 0/10 | 0/10 | Tox/Tot (mice which died / total) (IP, 150 mg/kg, DX 8): 0/10; inhibition in vivo at 150 mg/kg [1]: 34%; inhibition in vivo at 300 mg/kg [2]: 44%
Cc1ccc(S(=O)(=NC(C)C)NC(=O)Nc2ccc(Cl)cc2)cc1 (stereo not drawn) [Example 6, N-[[(4-chlorophenyl)amino]carbonyl]-N'-(1-methylethyl)-4-methylbenzenesulfonimidamide] |  | 93 | 99 |  | 2/10 |  |  |  |  | inhibition in vivo at 18.75 mg/kg (Mus musculus, 6C3HED, po): 18%; inhibition in vivo at 37.5 mg/kg (Mus musculus, 6C3HED, po): 60%; inhibition in vivo at 75 mg/kg (Mus musculus, 6C3HED, po): 86%; Tox/Tot (mice which died / total) (oral, 18.75 mg/kg, BIDX 8): 0/10; Tox/Tot (mice which died / total) (oral, 37.5 mg/kg, BIDX 8): 0/10; Tox/Tot (mice which died / total) (oral, 75 mg/kg, BIDX 8): 0/10; % inhibition of tumor growth (oral, 150 mg/kg, BIDX 8): 99%
Cc1ccc(S(=O)(=NC(=O)Nc2ccc(Cl)cc2)NCC(C)C)cc1 (stereo not drawn) [Example 8] |  | 97 |  |  | 10/10 |  |  |  |  | inhibition in vivo at 18.75 mg/kg (Mus musculus, 6C3HED, po): 29%; inhibition in vivo at 25 mg/kg (Mus musculus, 6C3HED, po, read-out: % inhibition of tumor growth, oral, 25 mg/kg, DX 8): 28%; inhibition in vivo at 37.5 mg/kg (Mus musculus, 6C3HED, po): 60%; inhibition in vivo at 50 mg/kg (Mus musculus, 6C3HED, po, read-out: % inhibition of tumor growth, oral, 50 mg/kg, DX 8): 31%; inhibition in vivo at 75 mg/kg (Mus musculus, 6C3HED, po): 85%; inhibition in vivo at 100 mg/kg (Mus musculus, 6C3HED, po, read-out: % inhibition of tumor growth, oral, 100 mg/kg, DX 8): 51%; Tox/Tot (mice which died / total) (oral, 18.75 mg/kg, BIDX 8): 0/10; Tox/Tot (mice which died / total) (oral, 25 mg/kg, DX 8): 0/10; Tox/Tot (mice which died / total) (oral, 37.5 mg/kg, BIDX 8): 0/10; Tox/Tot (mice which died / total) (oral, 50 mg/kg, DX 8): 0/10; Tox/Tot (mice which died / total) (oral, 75 mg/kg, BIDX 8): 0/10; Tox/Tot (mice which died / total) (oral, 100 mg/kg, DX 8): 0/10; % inhibition of tumor growth (oral, 150 mg/kg, BIDX 8): 98%; % inhibition of tumor growth (oral, 300 mg/kg, BIDX 8): TOX
CCCCCCNS(=O)(=NC(=O)Nc1ccc(Cl)cc1)c1ccc(C)cc1 (stereo not drawn) [Example 9] |  | 65 | 79 | 0/10 | 2/10 |  |  |  |  | 
Cc1ccc(S(=O)(=NC(=O)Nc2ccc(Cl)cc2)NCCO)cc1 (stereo not drawn) [Example 10] |  |  |  |  |  | 40 | 60 | 0/10 | 0/10 | 
Cc1ccc(S(=O)(=NC(=O)Nc2ccc(Cl)cc2)NCCCO)cc1 (stereo not drawn) [Example 11] |  | 65 | 89 | 0/10 | 2/10 |  |  |  |  | 
Cc1ccc(S(=O)(=NC(=O)Nc2ccc(Cl)cc2)NCc2ccccc2)cc1 (stereo not drawn) [Example 12] |  | 73 | 87 | 0/9 | 1/10 |  |  |  |  | 
Cc1ccc(S(=O)(=NC(=O)Nc2ccc(Cl)cc2)NCCc2ccccc2)cc1 (stereo not drawn) [Example 13] |  | 39 | 48 | 0/10 | 0/10 |  |  |  |  | 
Cc1ccc(S(=O)(=NC(=O)Nc2ccc(Cl)cc2)Nc2ccccc2)cc1 (stereo not drawn) [Example 14] | 3/10 |  |  |  |  | 0 | 5 | 0/10 | 0/10 | Tox/Tot (mice which died / total) (IP, 150 mg/kg, DX 8): 2/10; inhibition in vivo at 150 mg/kg [1]: 1%; inhibition in vivo at 300 mg/kg [2]: 38%
CC(=O)NS(=O)(=NC(=O)Nc1ccc(Cl)cc1)c1ccc(C)cc1 (stereo not drawn) [Example 15] | 10/10 | 0 | 84 | 0/10 | 0/10 | 23 | 44 | 0/10 | 0/10 | Tox/Tot (mice which died / total) (IP, 150 mg/kg, DX 8): 0/10; % inhibition of tumor growth (IP, 300 mg/kg, DX 8): TOX; inhibition in vivo at 150 mg/kg [1]: 0%
CC(=O)N(C)S(=O)(=NC(=O)Nc1ccc(Cl)cc1)c1ccc(C)cc1 (stereo not drawn) [Example 16, N-[[(4-chlorophenyl)amino]carbonyl]-N'-acetyl-N'-methyl-4-methylbenzenesulfonimidamide] |  | 98 | 99 | 1/10 | 1/10 |  |  |  |  | 
CC(=O)N(C(=O)N=[S+]([O-])(c1ccc(C)cc1)N(C)C(C)=O)c1ccc(Cl)cc1 (stereo not drawn) [Example 17] |  | 83 | 96 | 0/10 | 0/10 |  |  |  |  | 
Cc1ccc(S(=O)(=NC(=O)Nc2ccc(Cl)cc2)N(C)C)cc1 (stereo not drawn) [Example 18] | 4/8 |  |  |  |  | 45 | 63 | 0/10 | 0/10 | Tox/Tot (mice which died / total) (IP, 600 mg/kg, DX 8): 6/8; inhibition in vivo at 300 mg/kg [2]: 93%; inhibition in vivo at 600 mg/kg (Mus musculus, 6C3HED, ip, read-out: % inhibition of tumor growth, IP, 600 mg/kg, DX 8): 99%
Cc1ccc(S(N)(=O)=NC(=O)N(C)c2ccc(Cl)cc2)cc1 (stereo not drawn) [Example 20] |  | 83 | 93 | 0/10 | 0/10 |  |  |  |  | 
